≈ marks a conversion by molar mass, not a printed value. Where two headings read alike, the source gives them in different places.
Tests used:
Format in all cases: cell-based
Trichophyton rubrum = experiment: In vitro antifungal drug sensitivity test (microdilution method), Trichophyton rubrum; conditions: for MIC: read-out: Antifungal activity MIC
Excerpt: (§1) A microdilution method (Pierce C G, Uppuluri P, Tristan A R, et al. A simple and reproducible 96-well plate-based method for the formation of fungal biofilms and its application to antifungal susceptibility testing [J]. Nat Protoc, 2008, 3 (9): 1494-1500.) is adopted, and its experimental procedure refers to the M38-A2 and M27-A2 solutions (Espinel-Ingroff A, Fothergill A, Fuller J, et al. Wild-type MIC distributions and epidemiological cutoff values for caspofungin and Aspergillus Spp. for the CLSI broth microdilution method (M38-A2 document) [J]. Antimicrobl Agents Chemother, 2011, 55 (6): 2855-2859.). Three tested strains (Candida albicans, Trichophyton mentaqrophytes and Trichophyton rubrum) are used as indicator bacteria to carry out in vitro antifungal drug sensitivity screening experiment for the compounds AAP-1-AAP6.
(§2) Control drugs: ketoconazole (purchased from Shanghai Boliang Biotechnology Co., Ltd.), Aaptamine (same as Embodiment 2).

[1] = system: human lung cancer stem cell PC9-Oct4; experiment: In vitro anti-lung cancer stem cell test (CCK-8 cell viability), PC9-Oct4; conditions: read-out: Half effective inhibitory concentration IC50 against tumor cells
Protocol: (§3) In vitro anti-lung cancer stem cell test is carried out on the compounds AAP-1-6 of the present invention, and the lung cancer stem cell lines used are as follows:
(§4) Human lung cancer cell PC9 is purchased from ATCC with ATCC number 32727.
(§5) In addition, Oct4-GFP and Nanog-GFP are highly expressed by lentivirus transfection.
(§6) The original cell culture medium for Human lung cancer stem cells PC9-Nanog and PC9-Oct4 is discarded, 3 mL of PBS is added to rinse the cells twice; 500 μL of 0.25% trypsin is then added for digestion for 3 minutes at 37° C.; and 3 mL of a complete medium is added to terminate the digestion. The cells are pipetted gently with a pipette to make a single cell suspension; the single cell suspension is transferred to a 15 mL centrifuge tube and centrifuged at 800 rpm for 4 minutes; the supernatant is discarded, 6 mL of a complete medium is added to the centrifuge tube, and mixed by pipetting; counting is carried out to prepare […] single cell suspension; the suspension is added to a 96-well plate, 90 μL per well, (wells at the outer ring are not added with the suspension), and finally each well has 3000 cells; and the 96-well plate is incubated for 24 hours in a 37° C., 5% CO2 incubator.
(§7) 1 mg of each of the compounds AAP-1, AAP-2, AAP-3, AAP-4, AAP-5, and AAP-6 of the present invention is prepared into a 10 mM stock solution by using DMSO, and stored in a refrigerator with a temperature of 4° C. Thereafter, the stock solution is diluted with a medium to a 10 μM test solution. The final concentration is 10 μM in a 96-well plate, and the test solution is diluted three folds and added to the plate. Finally, the concentrations of the test solutions of the compounds of the present invention added to the plate are 10 μM, 3.3 μM, 1.1 μM, and 0.33 μM, respectively. The 96-well plate added with the compounds is incubated for 72 hours in a 37° C., 5% CO2 incubator. 72 hours later, 10 μL of CCK-8 solution is added to each well. 40 minutes to 60 minutes later, the absorbance at 450 nm, i.e., the OD value, is measured with a microplate reader. Cell viability is calculated after measuring the OD value of each group of cells. Cell viability (%)=(OD value of the treated group−OD value of the blank group)/(OD value of the blank control group−OD value of the blank group)×100%
(§8) The blank control group is not added with the compounds of the present invention, and the other steps are the same.
(§9) Meanwhile, the positive control drugs Cis-platinum (Shanghai Boliang Biotechnology Co., Ltd.) and Aaptamine (Reference: Enrique L. Larghi, Maria L. Bohn, Teodoro S. Kaufman, Aaptamine and related products. Their isolation, chemical syntheses, and biological activity, Tetrahedron 2009, 65 (22), 4257-4282 synthesis) are used as control groups for in vitro anti-tumor activity test, and the treatment method herein is the same as that for the compounds of the present invention.

[2] = system: human lung cancer stem cell PC9-Nanog; experiment: In vitro anti-lung cancer stem cell test (CCK-8 cell viability), PC9-Nanog; conditions: read-out: Half effective inhibitory concentration IC50 against tumor cells
Protocol: as §3, §4, §5, §6, §7, §8, §9

Candida albicans = experiment: In vitro antifungal drug sensitivity test (microdilution method), Candida albicans; conditions: for MIC: read-out: Antifungal activity MIC
Excerpt: as §1, §2

[3] = system: Trichophyton mentaqrophytes; experiment: In vitro antifungal drug sensitivity test (microdilution method), Trichophyton mentaqrophytes; conditions: for MIC: Trichophyton, read-out: Antifungal activity MIC
Excerpt: as §1, §2

[4] = Homo sapiens, 72 h, PC9-Oct4 cells, 72 hours incubation, CCK-8
[5] = Homo sapiens, 72 h, PC9-Nanog cells, 72 hours incubation, CCK-8
[6] = Trichophyton mentaqrophytes, microdilution
[7] = PC9-Oct4 cells, 72 hours incubation, CCK-8
[8] = PC9-Nanog cells, 72 hours incubation, CCK-8

COc1cc2ccnc3c2c(c1OC)NC=C3c1ccccc1 [AAP-1, 8,9-dimethoxy-3-phenyl-1H-benzo[de][1,6]naphthyridine]
MIC (Trichophyton rubrum; microdilution): 12.5 µg/mL (≈ 41.1 µM)
IC50 [1, 4]: 1.04 ± 0.11 µM
IC50 [2, 5]: 1.24 ± 0.02 µM
MIC (Candida albicans; microdilution): > 30 µg/mL
MIC [3, 6]: 25 µg/mL (≈ 82.1 µM)

COc1c(OC)c2c3c(nccc3c1-c1cccc(C(C)C)c1)C(c1cccc(C(C)C)c1)=CN2 [AAP-6, 3,7-bis(3-isopropyphenyl)-8,9dimethoxy-1H-benzo[de][1,6] naphthyridine]
Antifungal activity MIC (Trichophyton rubrum; microdilution): >30 µg/mL
IC50 [1, 7]: 3.82 ± 0.15 µM
IC50 [2, 8]: 4.82 ± 0.12 µM
Antifungal activity MIC (Candida albicans; microdilution): 25 µg/mL
Antifungal activity MIC [3, 6]: >30 µg/mL

CC(=O)N1CCN(c2ccc(OCC3COC(Cn4ccnc4)(c4ccc(Cl)cc4Cl)O3)cc2)CC1 (centres unmarked) [Ketoconazole, ketoconazole, reference compound]
MIC (Trichophyton rubrum; microdilution): 8 µg/mL (≈ 15.1 µM)
MIC (Candida albicans; microdilution): 8 µg/mL (≈ 15.1 µM)
MIC [3, 6]: 8 µg/mL (≈ 15.1 µM)

N.N.[Cl][Pt][Cl] [Cis-platinum, reference compound]
IC50 [1, 7]: 3.24 ± 0.05 µM
IC50 [2, 8]: 4.53 ± 0.03 µM

COc1cc2ccnc3c2c(c1OC)NC=C3 [Aaptamine]
Antifungal activity MIC (Trichophyton rubrum; microdilution): >30 µg/mL
MIC (Trichophyton rubrum): > 30 µg/mL
IC50 ([1]; Homo sapiens, 72 h): 8.44 ± 0.1 µM
IC50 ([2]; Homo sapiens, 72 h): 10.1 ± 0.17 µM
MIC (Candida albicans): > 30 µg/mL
MIC [3]: > 30 µg/mL

COc1c(OC)c2c3c(nccc3c1-c1ccccc1)C=CN2 [AAP-2, 8,9-dimethoxy-7-phenyl-1H-benzo[de][1,6]naphthyridine]
MIC (Trichophyton rubrum; microdilution): 25 µg/mL (≈ 82.1 µM)
IC50 [1, 4]: 7.22 ± 0.04 µM
IC50 [2, 5]: 6.82 ± 0.16 µM
MIC (Candida albicans; microdilution): > 30 µg/mL
MIC [3, 6]: 25 µg/mL (≈ 82.1 µM)
